Reference: US10251395B2, “Substituted furano-/thienocycloalkylamino-2-pyrimidine derivatives and use thereof for controlling undesired plant growth” (Bayer CropScience Aktiengesellschaft, priority 2015, dated 2019)

Experiments:
logP (HCOOH) = type: physicochemical
From the text: Table 2 (physicochemical characterization of selected synthesis examples)

Setaria viridis = assay: Pre-emergence herbicidal effect; type: in vivo; details: scored visually after 3 weeks
Procedure, shortened: (§1)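 Pre-em soil-surface spray; sandy loam, seeds covered with soil. WP/EC, aq. suspension/emulsion, 600–800 L/ha, +0.2% wetting agent. GH 3 wk; visual % activity vs untreated (100% = dead).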

Matricaria inodora = assay: Pre-emergence herbicidal effect; type: in vivo; details: scored visually after 3 weeks
Procedure, shortened: as §1

Viola tricolor [1] = assay: Pre-emergence herbicidal effect; type: in vivo; details: scored visually after 3 weeks
Procedure, shortened: as §1

Echinochloa crus-galli [2] = assay: Pre-emergence herbicidal effect; type: in vivo; details: Dosage 320 g/ha, scored visually after 3 weeks
Procedure, shortened: as §1

Stellaria media [3] = assay: Pre-emergence herbicidal effect; type: in vivo; details: scored visually after 3 weeks
Procedure, shortened: as §1

Polygonum convolvulus [4] = assay: Pre-emergence herbicidal effect; type: in vivo; details: Dosage 320 g/ha, scored visually after 3 weeks
Procedure, shortened: as §1

Amaranthus retroflexus [5] = assay: Pre-emergence herbicidal effect; type: in vivo; details: scored visually after 3 weeks
Procedure, shortened: as §1

Lolium multiflorum = assay: Pre-emergence herbicidal effect; type: in vivo; details: Dosage 320 g/ha, scored visually after 3 weeks
Procedure, shortened: as §1

Abutilon theophrasti [6] = assay: Pre-emergence herbicidal effect; type: in vivo; details: Dosage 320 g/ha, scored visually after 3 weeks
Procedure, shortened: as §1

Veronica persica [7] = assay: Pre-emergence herbicidal effect; type: in vivo; details: scored visually after 3 weeks
Procedure, shortened: as §1

Viola tricolor [8] = assay: Post-emergence herbicidal effect; type: in vivo; details: 320 g/ha, assessed visually after about 3 weeks vs untreated controls
Procedure, shortened: (§2)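 Seedlings at the one-leaf stage, about 2 to 3 weeks old, are sprayed on their foliage with compound suspended or emulsified in water containing 0.2% wetting agent. After roughly 3 weeks in the greenhouse, injury is estimated visually on a 0 to 100% scale.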

Echinochloa crus-galli [9] = assay: Post-emergence herbicidal effect; type: in vivo; details: 320 g/ha, assessed visually after about 3 weeks vs untreated controls
Procedure, shortened: as §2

Stellaria media [10] = assay: Post-emergence herbicidal effect; type: in vivo; details: 320 g/ha, assessed visually after about 3 weeks vs untreated controls
Procedure, shortened: as §2

Polygonum convolvulus [11] = assay: Post-emergence herbicidal effect; type: in vivo; details: 320 g/ha, assessed visually after about 3 weeks vs untreated controls
Procedure, shortened: as §2

Amaranthus retroflexus [12] = assay: Post-emergence herbicidal effect; type: in vivo; details: 320 g/ha, assessed visually after about 3 weeks vs untreated controls
Procedure, shortened: as §2

Abutilon theophrasti [13] = assay: Post-emergence herbicidal effect; type: in vivo; details: assessed visually after about 3 weeks vs untreated controls
Procedure, shortened: as §2

Veronica persica [14] = assay: Post-emergence herbicidal effect; type: in vivo; details: 320 g/ha, assessed visually after about 3 weeks vs untreated controls
Procedure, shortened: as §2

Cc1nc(N[C@@H]2CCCc3sccc32)ncc1F [compound 223]
logP (HCOOH) (logP (HCOOH)): solid; logP (HCOOH): 2.57; 1H NMR (CDCl3, 400 MHZ, δ in ppm): 1.90 (m, 3H, 3H

Nc1nc(NC2CCCc3sc(Cl)cc32)ncc1C(F)(F)F (racemic) [compound 22]
SETVI pre-emergence efficacy (herbicidal activity) (Setaria viridis; Dosage 320 g/ha): 100% | MATIN pre-emergence efficacy (herbicidal activity) (Matricaria inodora; Dosage 320 g/ha): 100% | VIOTR pre-emergence efficacy (herbicidal activity) (Viola tricolor [1]; Dosage 320 g/ha): 100% | ECHCG pre-emergence efficacy (herbicidal activity) (Echinochloa crus-galli [2]): 100% | STEME pre-emergence efficacy (herbicidal activity) (Stellaria media [3]; Dosage 320 g/ha): 100% | POLCO pre-emergence efficacy (herbicidal activity) (Polygonum convolvulus [4]): 100% | AMARE pre-emergence efficacy (herbicidal activity) (Amaranthus retroflexus [5]; Dosage 320 g/ha): 100% | LOLMU pre-emergence efficacy (herbicidal activity) (Lolium multiflorum): 100% | ABUTH pre-emergence efficacy (herbicidal activity) (Abutilon theophrasti [6]): 80% | VERPE pre-emergence efficacy (herbicidal activity) (Veronica persica [7]; Dosage 320 g/ha): 100% | post-emergence efficacy VIOTR (Viola tricolor [8]): 90% | post-emergence efficacy ECHCG (Echinochloa crus-galli [9]): 90% | post-emergence efficacy STEME (Stellaria media [10]): 90% | post-emergence efficacy POLCO (Polygonum convolvulus [11]): 90% | post-emergence efficacy AMARE (Amaranthus retroflexus [12]): 100% | post-emergence efficacy ABUTH (Abutilon theophrasti [13]; 320 g/ha): 90% | post-emergence efficacy VERPE (Veronica persica [14]): 90%

Cc1cc2c(o1)CC(C)(C)CC2Nc1ncc([N+](=O)[O-])c(N)n1 (stereo not shown) [compound 40, 5-Nitro-N2-(2,6,6-trimethyl-4,5,6,7-tetrahydro-1-benzofuran-4-yl)pyrimidine-2,4-diamine]
chromatographic logP (logP (HCOOH); HCOOH (formic acid)): 3.2

Cc1cc2c(s1)CCC2Nc1ncc(S(C)(=O)=O)c(N)n1 (racemic) [compound 4]
SETVI pre-emergence efficacy (herbicidal activity) (Setaria viridis; Dosage 80 g/ha): 100% | SETVI pre-emergence efficacy (herbicidal activity) (Setaria viridis; Dosage 320 g/ha): 100% | MATIN pre-emergence efficacy (herbicidal activity) (Matricaria inodora; Dosage 80 g/ha): 100% | MATIN pre-emergence efficacy (herbicidal activity) (Matricaria inodora; Dosage 320 g/ha): 100% | VIOTR pre-emergence efficacy (herbicidal activity) (Viola tricolor [1]; Dosage 80 g/ha): 100% | VIOTR pre-emergence efficacy (herbicidal activity) (Viola tricolor [1]; Dosage 320 g/ha): 100% | ECHCG pre-emergence efficacy (herbicidal activity) (Echinochloa crus-galli [2]): 100% | STEME pre-emergence efficacy (herbicidal activity) (Stellaria media [3]; Dosage 80 g/ha): 100% | STEME pre-emergence efficacy (herbicidal activity) (Stellaria media [3]; Dosage 320 g/ha): 100% | POLCO pre-emergence efficacy (herbicidal activity) (Polygonum convolvulus [4]): 100% | AMARE pre-emergence efficacy (herbicidal activity) (Amaranthus retroflexus [5]; Dosage 80 g/ha): 100% | AMARE pre-emergence efficacy (herbicidal activity) (Amaranthus retroflexus [5]; Dosage 320 g/ha): 100% | LOLMU pre-emergence efficacy (herbicidal activity) (Lolium multiflorum): 100% | ABUTH pre-emergence efficacy (herbicidal activity) (Abutilon theophrasti [6]): 100% | VERPE pre-emergence efficacy (herbicidal activity) (Veronica persica [7]; Dosage 80 g/ha): 100% | VERPE pre-emergence efficacy (herbicidal activity) (Veronica persica [7]; Dosage 320 g/ha): 100% | post-emergence efficacy ECHCG (Echinochloa crus-galli [9]): 100% | post-emergence efficacy STEME (Stellaria media [10]): 100% | post-emergence efficacy POLCO (Polygonum convolvulus [11]): 100% | post-emergence efficacy ABUTH (Abutilon theophrasti [13]; 80 g/ha): 80% | post-emergence efficacy ABUTH (Abutilon theophrasti [13]; 320 g/ha): 90%

O=C1CCCc2nc(NC3CCCc4occc43)ncc21 (racemic) [compound 54]
logP (HCOOH) (logP (HCOOH)): oily; logP (HCOOH): 2.35; 1H NMR (CDCl3, 400 MHZ, δ in ppm): 1.80-2.00 (m, 4H,

Cc1sc(C)c2c1CCCC2Nc1ncc(C#N)c(N)n1 (racemic) [compound 56]
logP (HCOOH) (logP (HCOOH)): oily; logP (HCOOH): 2.66;

COc1nc(NC2CCCc3sc(C)cc32)ncc1F (racemic) [compound 224]
logP (HCOOH) (logP (HCOOH)): solid; logP (HCOOH): 3.12; 1H NMR (CDCl3, 400 MHZ, δ in ppm): 1.90 (m, 3H, 3H
